The supplement of paper PMC8617591

What was measured:
[1] = tested on: Mycobacterium tuberculosis Erdman (autoluminescent); assay: FIC90 (Loewe) at 90% inhibition (log2); higher = more antagonistic
Procedure: (§1)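 DiaMOND equipotent two-drug combination dose responses against autoluminescent M. tuberculosis Erdman in 8 in vitro models. Read-out is OD600, or luminescence for the intracellular and dormancy models, normalised to untreated wells. Hill-fit Einf, AUC25 and GRinf are potency metrics; FIC50 and FIC90 are Loewe-additivity fractional inhibitory concentrations, given as log2 (negative = synergy). Replicates are averaged.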

[2] = tested on: Mycobacterium tuberculosis Erdman (autoluminescent); assay: Einf, fitted maximum growth inhibition of combination (fraction); higher = stronger maximal inhibition
Procedure: as §1

[3] = tested on: Mycobacterium tuberculosis Erdman (autoluminescent); assay: GRinf, maximum normalised growth rate inhibition (unitless (-1 to 1)); higher = less effect (negative = killing)
Procedure: as §1

[4] = tested on: Mycobacterium tuberculosis Erdman (autoluminescent); assay: AUC25, normalised area under dose response up to IC25 (fraction (0-1)); higher = more potent at low dose
Procedure: as §1

[5] = tested on: Mycobacterium tuberculosis Erdman (autoluminescent); assay: FIC50 (Loewe) at 50% inhibition (log2); higher = more antagonistic
Procedure: as §1

CC[C@@H](CO)NCCN[C@@H](CC)CO [ethambutol] + CO[C@H]1/C=C/O[C@@]2(C)Oc3c(C)c(O)c4c(O)c(c(/C=N/N5CCN(C6CCCC6)CC5)c(O)c4c3C2=O)NC(=O)/C(C)=C\C=C\[C@H](C)[C@H](O)[C@@H](C)[C@@H](O)[C@@H](C)[C@H](OC(C)=O)[C@@H]1C [rifapentine]
Details	AUC25, [4]	Einf, [2]	FIC50, [5]	FIC90, [1]	GRinf, [3]
in vitro model: acidic pH 5.7, time point: constant (~7 days, model-specific)	0.0932	0.893	-0.302	–	-0.289
in vitro model: acidic pH 5.7, time point: terminal (~4-5 doublings, model-specific)	0.0462	0.985	0.0731	-0.209	-0.287
in vitro model: intracellular J774, time point: constant = terminal	–	0.959	–	-2.62	-0.236

Details	AUC25, [4]	Einf, [2]	FIC50, [5]	FIC90, [1]	GRinf, [3]
in vitro model: butyrate, time point: constant (~7 days, model-specific)	0.0627	0.91	0.244	–	0.0321
in vitro model: butyrate, time point: terminal (~4-5 doublings, model-specific)	0.0478	0.959	0.226	-0.659	0.0099
in vitro model: cholesterol 0.05 mM, time point: constant (~7 days, model-specific)	0.118	0.694	0.509	–	-0.191
in vitro model: cholesterol 0.05 mM, time point: terminal (~4-5 doublings, model-specific)	0.0857	0.889	0.404	–	-0.163
in vitro model: cholesterol-high 0.2 mM, time point: constant (~7 days, model-specific)	0.0262	0.944	0.734	–	-0.482
in vitro model: cholesterol-high 0.2 mM, time point: terminal (~4-5 doublings, model-specific)	0.0335	1	0.916	0.787	-0.739
in vitro model: dormancy (butyrate + nitrate, low O2), time point: constant (~7 days, model-specific)	0.103	0.855	0.28	–	0.366
in vitro model: dormancy (butyrate + nitrate, low O2), time point: terminal (~4-5 doublings, model-specific)	0.119	0.99	0.137	0.579	-0.485
in vitro model: standard 7H9 glycerol, time point: constant = terminal	0.0363	0.939	0.0721	-0.243	-0.0574
in vitro model: valerate, time point: constant (~7 days, model-specific)	0.0721	0.874	0.0991	–	0.0371
in vitro model: valerate, time point: terminal (~4-5 doublings, model-specific)	0.034	0.935	0.275	-0.509	0.0428

CC[C@@H](CO)NCCN[C@@H](CC)CO [ethambutol] + CO[C@H]1/C=C/O[C@@]2(C)Oc3c(C)c(O)c4c(O)c(c(/C=N/N5CCN(C)CC5)c(O)c4c3C2=O)NC(=O)/C(C)=C\C=C\[C@H](C)[C@H](O)[C@@H](C)[C@@H](O)[C@@H](C)[C@H](OC(C)=O)[C@@H]1C [rifampicin]
Details	AUC25, [4]	Einf, [2]	FIC50, [5]	FIC90, [1]	GRinf, [3]
in vitro model: acidic pH 5.7, time point: constant (~7 days, model-specific)	0.0993	0.914	-0.394	–	-0.41
in vitro model: acidic pH 5.7, time point: terminal (~4-5 doublings, model-specific)	0.0298	0.979	0.0255	-0.711	-0.247
in vitro model: intracellular J774, time point: constant = terminal	–	0.967	–	-2.96	-0.274

Details	AUC25, [4]	Einf, [2]	FIC50, [5]	FIC90, [1]	GRinf, [3]
in vitro model: butyrate, time point: constant (~7 days, model-specific)	0.0748	0.918	0.144	–	-0.00723
in vitro model: butyrate, time point: terminal (~4-5 doublings, model-specific)	0.0614	0.965	0.0567	-0.897	-0.02
in vitro model: cholesterol 0.05 mM, time point: constant (~7 days, model-specific)	0.0842	0.701	-0.298	–	-0.173
in vitro model: cholesterol 0.05 mM, time point: terminal (~4-5 doublings, model-specific)	0.0953	0.887	0.234	–	-0.127
in vitro model: cholesterol-high 0.2 mM, time point: constant (~7 days, model-specific)	0.029	0.952	0.64	–	-0.414
in vitro model: cholesterol-high 0.2 mM, time point: terminal (~4-5 doublings, model-specific)	0.0647	0.996	0.607	0.842	-0.635
in vitro model: dormancy (butyrate + nitrate, low O2), time point: constant (~7 days, model-specific)	0.0667	0.847	-0.0202	–	0.407
in vitro model: dormancy (butyrate + nitrate, low O2), time point: terminal (~4-5 doublings, model-specific)	0.067	0.988	0.236	-0.513	-0.164
in vitro model: standard 7H9 glycerol, time point: constant = terminal	0.0324	0.894	-0.0789	–	0.143
in vitro model: valerate, time point: constant (~7 days, model-specific)	0.0519	0.845	-0.00587	–	0.0704
in vitro model: valerate, time point: terminal (~4-5 doublings, model-specific)	0.0294	0.933	0.0274	-1.32	0.0354
